Results published in patent US12396942B2, “Seed extract of Annona cherimola” (CLR-Chemisches Laboratorium Dr. Kurt Richter GmbH, priority 2019, dated 2025).

Experiments:
IL-8 = assay: Capsaicine-induced IL-8 release in co-culture of keratinocytes and human sensory neurons; format: cell-based; settings: FIG. 4
Method: (§1) To examine whether an F230 extract prepared as described in Example 1 is able to inhibit IL-1β and IL-8 expression, a co-culture system of keratinocytes and human sensory neurons was used. Human sensory neurons were derived from human induced pluripotent stem cells (hiPS cells). hiPS cells were obtained by transfecting human fibroblasts which were reprogrammed into […]. hiPS cells were plated in 6 wells plates coated by a thin layer of Matrigel® (Corning GmbH, Kaiserslautern, Germany) at a density of 250,000 cells in a medium composed by DMEM-F12 (Pan-Biotech, Aidenbach, Germany) supplemented with 10% Knockout Serum Replacement (Life technologies, Carlsbad, USA), 0.1 μM retinoic acid (Sigma Aldrich, Taufkirchen, Germany), 1% P/S (Pan-Biotech) and a cocktail of inhibitors. The culture was maintained for 6 days at 37° C. and 5% of CO2.
(§2) After 6 days of differentiation, hiPS cells were plated at a density of 20,000 cells in the differentiation medium using 96-well plates that had been coated with a thin layer of Matrigel®. […] Samples were evaluated by cytometry flux (BD Bioscience) and compared to non-treated controls.

IL-1β = assay: Capsaicine-induced IL-1β release in co-culture of keratinocytes and human sensory neurons; format: cell-based; settings: FIG. 3
Method: as §1, §2

[1] = co-culture, capsaicine as stimulus, compared to non-treated controls
[2] = co-culture of keratinocytes and human sensory neurons, 1 hour capsaicin stimulation, supernatant

Q: COc1cc(CNC(=O)CCCC/C=C/C(C)C)ccc1O [capsaicine] was tested. Which “IL-8 expression on incubation with capsaicine alone” value (IL-8; [1]) did it give?
A: The value was “strongly induced IL-8 expression”.

Q: And the “IL-1β expression on incubation with capsaicine alone” value (IL-1β; [1])?
A: The value was “strongly induced IL-1β expression”.

Q: What does the source list for Oc1cc2c(cc1O)CN(C(=S)NCCc1ccc(Cl)cc1)CCC2 [capsazepine]?
A: inhibition of capsaicine-induced IL-8 release (IL-8; [2]): significantly reduced IL-8 release; inhibition of capsaicine-induced IL-1β release (IL-1β; [2]): completely abrogates IL-1β release
